Results as given in patent publication US20260022143A1, “Cyclic Peptide Inhibitors of IL-23” (JANSSEN PHARMACEUTICA NV, priority 2022, published 2026).
Positions of bridges follow the written chain, without caps; N, C: chain ends. Non-standard residues stand in square brackets, D forms with d. Residues, ends and D or L forms follow the SMILES beside them. *: point of attachment. Me3N+(CH2)2O(CH2)2O(CH2)2CO = C[N+](C)(C)CCOCCOCCC(=O)*; CH2CH2OCH2CH2OCH2CH2NMe3+ = C[N+](C)(C)CCOCCOCC*; Trp(7-Me) = Cc1cccc2c(C[C@H](N)C(=O)O)c[nH]c12; CH2CH2OCH2CH2NMe3+ = C[N+](C)(C)CCOCC*; X60 = CCCCCCCC[N+](C)(C)CCc1cn(CC*)nn1; 2Nal = N[C@@H](Cc1ccc2ccccc2c1)C(=O)O; AEF = NCCOc1ccc(C[C@H](N)C(=O)O)cc1; X50 = CCCC[N+](CCCC)(CCCC)CCOCCOCC*; X26 = C[N+](C)(C)CCCCc1cn(CC*)nn1; 3Pal = N[C@@H](Cc1cccnc1)C(=O)O; Lys(Me) = CNCCCC[C@H](N)C(=O)O; Pen = CC(C)(S)[C@H](N)C(=O)O; X49 = O=C(CCCCCCCC*)N1CCCCC1; X52 = C[N+](C)(C)CCOCCNCC*; Thp = NC1(C(=O)O)CCOCC1; Sar = CNCC(=O)O

How the values were obtained:
IL-23R = biological target: T1, IL-23R (Homo sapiens, UniProt Q5VWK5); test: IL23R Reporter Assay; format: cell-based; conditions: HEK293 cells containing IL-23R, IL-12RP1 and STAT-inducible firefly luciferase reporter; 10 ng/mL IL-23 (EC90); 5 h at 37° C.; read-out: IL23R Reporter Assay
T1 construct: host or cells: HEK293
T1 sequence (Q5VWK5 24-629): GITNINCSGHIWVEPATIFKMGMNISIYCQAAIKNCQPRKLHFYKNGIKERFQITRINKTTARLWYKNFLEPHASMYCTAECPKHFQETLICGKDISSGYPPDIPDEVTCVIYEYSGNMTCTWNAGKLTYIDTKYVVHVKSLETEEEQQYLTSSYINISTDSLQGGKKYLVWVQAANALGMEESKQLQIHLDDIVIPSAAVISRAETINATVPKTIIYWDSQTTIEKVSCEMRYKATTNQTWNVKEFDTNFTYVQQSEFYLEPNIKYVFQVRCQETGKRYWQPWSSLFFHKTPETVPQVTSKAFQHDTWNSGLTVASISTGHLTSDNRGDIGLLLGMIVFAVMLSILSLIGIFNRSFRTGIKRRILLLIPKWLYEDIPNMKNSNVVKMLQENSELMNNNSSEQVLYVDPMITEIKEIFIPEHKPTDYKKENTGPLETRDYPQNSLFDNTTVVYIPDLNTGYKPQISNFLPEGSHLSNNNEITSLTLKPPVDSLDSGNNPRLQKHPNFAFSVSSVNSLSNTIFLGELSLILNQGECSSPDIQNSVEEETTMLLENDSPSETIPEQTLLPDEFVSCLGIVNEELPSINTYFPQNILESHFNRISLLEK

[1] = Exposed Polar Surface Area (EPSA); format: physicochemical; conditions: SFC on Chirex 3014 column; sample 1 mM DMSO stock; read-out: EPSA
In short: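 Polarity descriptor in Å² derived from retention time using 8 calibration standards re-run every 20 compounds. Duplicate injections of 1 mM DMSO stock; linear 5–60% modifier gradient (20 mM ammonium formate in MeOH) with CO2 at 4 mL/min, 35 °C, on a Chirex 3014 column.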

SMILES	IC50 (IL-23R) [nM]	EPSA [1] [A^2]
CC(=O)N(C)CCCC[C@@H]1NC(=O)[C@H](Cc2c[nH]c3c(C)cccc23)NC(=O)[C@H]([C@@H](C)O)NC(=O)[C@H](CC(=O)N(C)C)NC(=O)[C@@H](NC(=O)CCOCCOCC[N+](C)(C)C)C(C)(C)SSC(C)(C)[C@@H](C(=O)N[C@@H](Cc2ccc(OCCNCCOCC[N+](C)(C)C)cc2)C(=O)N[C@@H](Cc2ccc3ccccc3c2)C(=O)NC2(C(=O)N[C@@H](CCCCN(C)C(C)=O)C(=O)N[C@@H](CC(N)=O)C(=O)N[C@@H](Cc3cccnc3)C(=O)N(C)CC(=O)N(C)C)CCOCC2)NC1=O [compound 238, cPEG3aCO-Pen(3)-N(N(Me)2)-T-7MeW-K(NMeAc)-Pen(3)-AEF(PEG2a)-2Nal-THP-K(NMeAc)-N-3Pya-Sar-CON(Me)2] ({Me3N+(CH2)2O(CH2)2O(CH2)2CO}-[Pen]D(NMe2)T[Trp(7-Me)][Lys(Me)](Ac)[Pen]Y(X52)[2Nal][Thp][Lys(Me)](Ac)N[3Pal][Sar]-NMe2; disulfide 1-6)	3.5	145
CCCCCCCC[N+](C)(C)CCc1cn(CCOc2ccc(C[C@H](NC(=O)[C@H]3NC(=O)[C@H](CCCCNC(C)=O)NC(=O)[C@H](Cc4c[nH]c5c(C)cccc45)NC(=O)[C@H]([C@@H](C)O)NC(=O)[C@H](CC(N)=O)NC(=O)[C@@H](NC(C)=O)C(C)(C)SSC3(C)C)C(=O)N[C@@H](Cc3ccc4ccccc4c3)C(=O)NC3(C(=O)N[C@@H](CCCCNC(C)=O)C(=O)N[C@@H](CC(N)=O)C(=O)N[C@@H](Cc4cccnc4)C(=O)N(C)CC(N)=O)CCOCC3)cc2)nn1 [compound 250] (Ac-[Pen]NT[Trp(7-Me)]K(Ac)[Pen]Y(X60)[2Nal][Thp]K(Ac)N[3Pal][Sar]-NH2; disulfide 1-6 (inferred))	6.9	146
CC(=O)NCCCC[C@@H]1NC(=O)[C@H](Cc2c[nH]c3c(C)cccc23)NC(=O)[C@H]([C@@H](C)O)NC(=O)[C@H](CC(N)=O)NC(=O)[C@@H](NC(C)=O)C(C)(C)SSC(C)(C)[C@@H](C(=O)N[C@@H](Cc2ccc(OCCn3cc(CCCC[N+](C)(C)C)nn3)cc2)C(=O)N[C@@H](Cc2ccc3ccccc3c2)C(=O)NC2(C(=O)N[C@@H](CCCCNC(C)=O)C(=O)N[C@@H](CC(N)=O)C(=O)N[C@@H](Cc3cccnc3)C(=O)N(C)CC(N)=O)CCOCC2)NC1=O [compound 258] (Ac-[Pen]NT[Trp(7-Me)]K(Ac)[Pen]Y(X26)[2Nal][Thp]K(Ac)N[3Pal][Sar]-NH2; disulfide 1-6 (inferred))	6.9	151
CCCC[N+](CCCC)(CCCC)CCOCCOCCOc1ccc(C[C@H](NC(=O)[C@H]2NC(=O)[C@H](CCCCN(C)C(C)=O)NC(=O)[C@H](Cc3c[nH]c4c(C)cccc34)NC(=O)[C@H]([C@@H](C)O)NC(=O)[C@H](CC(=O)N(C)C)NC(=O)[C@@H](NC(=O)CCOCCOCC[N+](C)(C)C)C(C)(C)SSC2(C)C)C(=O)N[C@@H](Cc2ccc3ccccc3c2)C(=O)NC2(C(=O)N[C@@H](CCCCN(C)C(C)=O)C(=O)N[C@@H](CC(N)=O)C(=O)N[C@@H](Cc3cccnc3)C(=O)N(C)CC(=O)N(C)C)CCOCC2)cc1 [compound 263, cPEG3aCO-Pen(3)-N(N(Me)2)-T-7MeW-K(NMeAc)-Pen(3)-TBAPEG3F-2Nal-THP-K(NMeAc)-N-3Pya-Sar-CON(Me)2] ({Me3N+(CH2)2O(CH2)2O(CH2)2CO}-[Pen]D(NMe2)T[Trp(7-Me)][Lys(Me)](Ac)[Pen]Y(X50)[2Nal][Thp][Lys(Me)](Ac)N[3Pal][Sar]-NMe2; disulfide 1-6 (inferred))	5	140

More lines, now with the values ahead:

IC50 (IL-23R) [nM]	EPSA [1] [A^2]	SMILES
3.4	140	CC(=O)N[C@H](COCCOCC[N+](C)(C)C)C(=O)N[C@@H]1C(=O)N[C@@H](CC(=O)N(C)C)C(=O)N[C@@H]([C@@H](C)O)C(=O)N[C@@H](Cc2c[nH]c3c(C)cccc23)C(=O)N[C@@H](CCCCN(C)C(C)=O)C(=O)N[C@H](C(=O)N[C@@H](Cc2ccc(OCCOCCOCC[N+](C)(C)C)cc2)C(=O)N[C@@H](Cc2ccc3ccccc3c2)C(=O)NC2(C(=O)N[C@@H](CCCCN(C)C(C)=O)C(=O)N[C@@H](CC(N)=O)C(=O)N[C@@H](Cc3cccnc3)C(=O)N(C)CC(=O)N(C)C)CCOCC2)C(C)(C)SSC1(C)C [compound 232, MeCO-APEG2ser-Pen(3)-N(N(Me)2)-T-7MeW-K(NMeAc)-Pen(3)-APEG3F-2Nal-THP-K(NMeAc)-N-3Pya-Sar-CON(Me)2]
3	141	CC(=O)NCCCC[C@H](NC(=O)C1(NC(=O)[C@H](Cc2ccc3ccccc3c2)NC(=O)[C@H](Cc2ccc(OCCOCCOCC[N+](C)(C)C)cc2)NC(=O)[C@H]2NC(=O)[C@H](CCCCN(C)C(C)=O)NC(=O)[C@H](Cc3c[nH]c4c(C)cccc34)NC(=O)[C@H]([C@@H](C)O)NC(=O)[C@H](CC(=O)N(C)C)NC(=O)[C@@H](NC(=O)CCOCCOCC[N+](C)(C)C)C(C)(C)SSC2(C)C)CCOCC1)C(=O)N[C@@H](CC(N)=O)C(=O)N[C@@H](Cc1cccnc1)C(=O)N(C)CC(=O)N(C)C [compound 233, cPEG3aCO-Pen(3)-N(N(Me)2)-T-7MeW-K(NMeAc)-Pen(3)-APEG3F-2Nal-THP-K(Ac)-N-3Pya-Sar-CON(Me)2] ({Me3N+(CH2)2O(CH2)2O(CH2)2CO}-[Pen]D(NMe2)T[Trp(7-Me)][Lys(Me)](Ac)[Pen]Y(CH2CH2OCH2CH2OCH2CH2NMe3+)[2Nal][Thp]K(Ac)N[3Pal][Sar]-NMe2; disulfide 1-6)
25	145	CC(=O)N(C)CCCC[C@@H]1NC(=O)[C@H](Cc2c[nH]c3c(C)cccc23)NC(=O)[C@H]([C@@H](C)O)NC(=O)[C@H](CC(=O)N(C)C)NC(=O)[C@@H](NC(=O)CCOCCOCC[N+](C)(C)C)C(C)(C)SSC(C)(C)[C@@H](C(=O)N[C@@H](Cc2ccc(OCCCCCCCCC(=O)N3CCCCC3)cc2)C(=O)N[C@@H](Cc2ccc3ccccc3c2)C(=O)NC2(C(=O)N[C@@H](CCCCN(C)C(C)=O)C(=O)N[C@@H](CC(N)=O)C(=O)N[C@@H](Cc3cccnc3)C(=O)N(C)CC(=O)N(C)C)CCOCC2)NC1=O [compound 242, cPEG3aCO-Pen(3)-N(N(Me)2)-T-7MeW-K(NMeAc)-Pen(3)-YC8COPip-2Nal-THP-K(NMeAc)-N-3Pya-Sar-CON(Me)2] ({Me3N+(CH2)2O(CH2)2O(CH2)2CO}-[Pen]D(NMe2)T[Trp(7-Me)][Lys(Me)](Ac)[Pen]Y(X49)[2Nal][Thp][Lys(Me)](Ac)N[3Pal][Sar]-NMe2; disulfide 1-6)
42	148	CC(=O)N(C)CCCC[C@H](NC(=O)C1(NC(=O)[C@H](Cc2ccc3ccccc3c2)NC(=O)[C@H](Cc2ccc(OCCN)cc2)NC(=O)[C@H]2NC(=O)[C@H](COCCOCC[N+](C)(C)C)NC(=O)[C@H](Cc3c[nH]c4c(C)cccc34)NC(=O)[C@H]([C@@H](C)O)NC(=O)[C@H](CC(=O)N(C)C)NC(=O)[C@@H](NC(=O)CCOCCOCC[N+](C)(C)C)C(C)(C)SSC2(C)C)CCOCC1)C(=O)N[C@@H](CC(N)=O)C(=O)N[C@@H](Cc1cccnc1)C(=O)N(C)CC(=O)N(C)C [compound 245, cPEG3aCO-Pen(3)-N(N(Me)2)-T-7MeW-APEG2Ser-Pen(3)-AEF-2Nal-THP-K(NMeAc)-N-3Pya-Sar-CON(Me)2] ({Me3N+(CH2)2O(CH2)2O(CH2)2CO}-[Pen]D(NMe2)T[Trp(7-Me)]S(CH2CH2OCH2CH2NMe3+)[Pen][AEF][2Nal][Thp][Lys(Me)](Ac)N[3Pal][Sar]-NMe2; disulfide 1-6)
40	146	CC(=O)NCCCC[C@@H]1NC(=O)[C@H](Cc2c[nH]c3c(C)cccc23)NC(=O)[C@H]([C@@H](C)O)NC(=O)[C@H](CC(N)=O)NC(=O)[C@@H](NC(C)=O)C(C)(C)SSC(C)(C)[C@@H](C(=O)N[C@@H](Cn2cc(CC[N+](C)(C)C)nn2)C(=O)N[C@@H](Cc2ccc3ccccc3c2)C(=O)NC2(C(=O)N[C@@H](CCCCNC(C)=O)C(=O)N[C@@H](CC(N)=O)C(=O)N[C@@H](Cc3cccnc3)C(=O)N(C)CC(N)=O)CCOCC2)NC1=O [compound 253]
6.4	159	CC(=O)N(C)CCCC[C@@H]1NC(=O)[C@H](Cc2c[nH]c3c(C)cccc23)NC(=O)[C@H]([C@@H](C)O)NC(=O)[C@H](CC(=O)N(C)C)NC(=O)[C@@H](NC(=O)CCOCCOCC[N+](C)(C)C)C(C)(C)SSC(C)(C)[C@@H](C(=O)NC(Cc2ccc(OCCN(CCOCC[N+](C)(C)C)CCOCC[N+](C)(C)C)cc2)C(=O)N[C@@H](Cc2ccc3ccccc3c2)C(=O)NC2(C(=O)N[C@@H](CCCCN(C)C(C)=O)C(=O)N[C@@H](CC(N)=O)C(=O)N[C@@H](Cc3cccnc3)C(=O)N(C)CC(=O)N(C)C)CCOCC2)NC1=O (stereo partly drawn) [compound 265, cPEG3aCO-Pen(3)-N(N(Me)2)-T-7MeW-K(NMeAc)-Pen(3)-AEF(BisPEG2a)(RS)-2Nal-THP-K(NMeAc)-N-3Pya-Sar-CON(Me)2]
